In ChEMBL document CHEMBL5518189, “Design, synthesis and biological evaluation of 1,2,3-triazole benzothiazole derivatives as tubulin polymerization inhibitors with potent anti-esophageal cancer activities” (Eur J Med Chem, 2024):

Tests used:
HCT-116 = experiment: Antiproliferative activity against human HCT-116 cells assessed as inhibition of cell growth measured after 48 hrs by CCK8 method; assay type: functional, cell-based; details: HCT-116, 48 h
MGC-803 = experiment: Antiproliferative activity against human MGC-803 cells assessed as inhibition of cell growth measured after 48 hrs by CCK8 method; assay type: functional, cell-based; details: MGC-803, 48 h
KYSE-30 = experiment: Antiproliferative activity against human KYSE-30 cells assessed as inhibition of cell growth measured after 48 hrs by CCK8 method; assay type: functional, cell-based; details: KYSE-30, 48 h
PC-3 = experiment: Antiproliferative activity against human PC-3 cells assessed as inhibition of cell growth measured after72 hrs by MTT assay; assay type: functional, cell-based
HeLa = experiment: Growth inhibition of human HeLa cells; assay type: functional
Tubulin [1] = experiment: Inhibition of tubulin polymerization (unknown origin); assay type: protein-complex assay, Homo sapiens
Tubulin [2] = experiment: Inhibition of tubulin polymerization (unknown origin) by spectrophotometer analysis; assay type: protein-complex assay, Homo sapiens

Row | Compound | IC50 (HCT-116) | IC50 (MGC-803) | IC50 (PC-3) | GI50 (HeLa) | IC50 (Tubulin [1]) | IC50 (Tubulin [2]) | IC50 (KYSE-30)
1 | COc1cc2c(c(OC)c1OC)-c1ccc(OC)c(=O)cc1[C@@H](NC(C)=O)CC2 [COLCHICINE] |  | 0.046 µM |  |  |  |  | 0.048 µM
2 | COc1cc(N(Cc2cccnc2)C(=O)Cn2cc(CSc3nc4ccccc4s3)nn2)cc(OC)c1OC | > 80 µM | > 80 µM |  |  |  |  | > 80 µM
3 | COc1cc(N(Cc2c(C)noc2C)C(=O)CSc2nc3ccccc3s2)cc(OC)c1OC |  |  | 2.04 µM |  |  |  | 
4 | COc1ccc2nc(-c3ccc(-n4cnnc4-c4cc(OC)c(OC)c(OC)c4)c(C)c3)sc2c1 |  |  |  | 0.04 µM | 1.91 µM |  | 
5 | COc1cc(N(Cc2c(C)noc2C)C(=O)Cn2cc(CSc3nc4ccccc4s3)nn2)cc(OC)c1OC | > 80 µM | > 80 µM |  |  |  |  | > 80 µM
6 | COc1ccc(CN(C(=O)Cn2cc(CSc3nc4ccccc4s3)nn2)c2ccc(F)cc2)cc1 | > 80 µM | 68.5 µM |  |  |  |  | 77.6 µM
7 | COc1cc(N(Cc2ccc(Cl)cc2)C(=O)Cn2cc(CSc3nc4ccccc4s3)nn2)cc(OC)c1OC | > 80 µM | > 80 µM |  |  |  |  | > 80 µM
8 | COc1cc(N(Cc2ccc(F)cc2)C(=O)Cn2cc(CSc3nc4ccccc4s3)nn2)cc(OC)c1OC | > 80 µM | > 80 µM |  |  |  |  | > 80 µM
9 | COc1cc(C(=O)c2nc3cc(Br)ccc3s2)cc(OC)c1OC |  |  |  |  |  | 13.1 µM | 
10 | COc1ccc2nc(-c3cccnc3-c3cc(OC)c(OC)c(OC)c3)sc2c1 |  |  |  |  | 1.67 µM |  | 
11 | COc1ccc(CN(C(=O)Cn2cc(CSc3nc4ccccc4s3)nn2)c2ccc(C)cc2)cc1 | > 80 µM | 46.5 µM |  |  |  |  | 63.1 µM
12 | COc1cc(N(Cc2nc3ccccc3[nH]2)C(=O)Cn2cc(CSc3nc4ccccc4s3)nn2)cc(OC)c1OC | 68.7 µM | 40.3 µM |  |  |  |  | 56.8 µM
13 | COc1cc(CN(C(=O)Cn2cc(CSc3nc4ccccc4s3)nn2)c2cc(OC)c(OC)c(OC)c2)cc(OC)c1OC | > 80 µM | > 80 µM |  |  |  |  | > 80 µM

Further molecules by falling IC50 (HCT-116), results first:

Row | IC50 (HCT-116) | IC50 (MGC-803) | IC50 (PC-3) | GI50 (HeLa) | IC50 (Tubulin [1]) | IC50 (Tubulin [2]) | Compound | IC50 (KYSE-30)
14 | 63.7 µM | 52.5 µM |  |  |  |  | COc1ccc(CN(C(=O)Cn2cc(CSc3nc4ccccc4s3)nn2)c2ccccc2)cc1 | 62.2 µM
15 | 60.3 µM | 53.3 µM |  |  |  |  | COc1ccc(CN(C(=O)Cn2cc(CSc3nc4ccccc4s3)nn2)c2ccc(Br)cc2)cc1 | 35.5 µM
16 | 60.1 µM | 74.3 µM |  |  |  |  | COc1cc(N(Cc2ccc(Br)cc2)C(=O)Cn2cc(CSc3nc4ccccc4s3)nn2)cc(OC)c1OC | > 80 µM
17 | 59.5 µM | 62.1 µM |  |  |  |  | COc1ccc(CN(C(=O)Cn2cc(CSc3nc4ccccc4s3)nn2)c2ccc(Cl)cc2)cc1 | > 80 µM
18 | 52.4 µM | 38.5 µM |  |  |  |  | COc1ccc(CN(C(=O)Cn2cc(CSc3nc4ccccc4s3)nn2)c2ccc(OC)c(OC)c2)cc1 | > 80 µM
19 | 34.2 µM | 14.5 µM |  |  |  |  | COc1ccc(CN(C(=O)Cn2cc(CSc3nc4ccccc4s3)nn2)c2ccc(OC)cc2)cc1 | 28.3 µM
20 | 16.2 µM | 8.16 µM |  |  |  |  | COc1ccc(CN(C(=O)Cn2cc(CSc3nc4ccccc4s3)nn2)c2cc(OC)c(OC)c(OC)c2)cc1[N+](=O)[O-] | 12.1 µM
21 | 3.97 µM | 2.35 µM |  |  |  |  | COc1cc(N(Cc2ccc(C)cc2)C(=O)Cn2cc(CSc3nc4ccccc4s3)nn2)cc(OC)c1OC | 1.86 µM
22 | 2.19 µM | 1.56 µM |  |  |  |  | COc1ccc(CN(C(=O)Cn2cc(CSc3nc4ccccc4s3)nn2)c2cc(OC)c(OC)c(OC)c2)cc1OC | 1.74 µM
23 | 1.68 µM | 1.03 µM |  |  |  |  | COc1ccc(CN(C(=O)Cn2cc(CSc3nc4ccccc4s3)nn2)c2cc(OC)c(OC)c(OC)c2)cc1 | 1.44 µM
24 | 1.33 µM | 0.82 µM |  |  |  |  | COc1ccc(CN(C(=O)Cn2cc(CSc3nc4ccccc4s3)nn2)c2cc(OC)c(OC)c(OC)c2)cc1Br | 1.14 µM
25 | 0.47 µM | 0.29 µM |  |  |  |  | COc1ccc(CN(C(=O)Cn2cc(CSc3nc4ccccc4s3)nn2)c2cc(OC)c(OC)c(OC)c2)cc1F | 0.76 µM
26 | 0.126 µM | 0.063 µM |  |  |  |  | COc1ccc2nc(SCc3cn(CC(=O)N(Cc4ccc(OC)c(O)c4)c4cc(OC)c(OC)c(OC)c4)nn3)sc2c1 | 0.058 µM
27 | 0.094 µM | 0.088 µM |  |  |  |  | COc1ccc(CN(C(=O)Cn2cc(CSc3nc4ccccc4s3)nn2)c2cc(OC)c(OC)c(OC)c2)cc1N | 0.059 µM
28 | 0.078 µM | 0.089 µM |  |  |  |  | COc1ccc(CN(C(=O)Cn2cc(CSc3nc4c(C)cccc4s3)nn2)c2cc(OC)c(OC)c(OC)c2)cc1O | 0.067 µM
29 | 0.064 µM | 0.054 µM |  |  |  |  | COc1ccc(CN(C(=O)Cn2cc(CSc3nc4ccc(Br)cc4s3)nn2)c2cc(OC)c(OC)c(OC)c2)cc1O | 0.049 µM
30 | 0.062 µM | 0.069 µM |  |  |  |  | COc1ccc(CN(C(=O)Cn2cc(CSc3nc4ccc(Cl)cc4s3)nn2)c2cc(OC)c(OC)c(OC)c2)cc1O | 0.072 µM
